From patent EP4782450A1, “NOVEL SKELETAL DERIVATIVE EFFECTIVE FOR HER2 MUTATION, AND PHARMACEUTICAL COMPOSITION COMPRISING SAME” (Hanmi Pharm. Co., Ltd., priority 2023, dated 2025)
Where two headings read alike, the source gives them in different places.

What was measured:
[1] = system: Ba/F3 HER2 A775insYVMA; test: Growth inhibition of Ba/F3 cells engineered to overexpress HER2 A775_G776insYVMA (CellTiter-Glo luminescence); format: cell-based; details: concentrations 1000 to 0.32 nM, read-out: Ba/F3 HER2^YVMA GI50 class
How it was run: (§1)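 Ba/F3 cells overexpressing HER2 A775_G776insYVMA (1000–0.32 nM) or wild-type EGFR (10000–8 nM) treated 72 h at 37°C in RPMI/10% FBS. Viability by CellTiter-Glo luminescence; GI50 by nonlinear regression with untreated growth set at 100%.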

[2] = system: wild-type EGFR overexpressing Ba/F3 cells; test: Growth inhibition of Ba/F3 cells engineered to overexpress wild-type EGFR (CellTiter-Glo luminescence); format: cell-based; details: concentrations 10000 to 8 nM, read-out: Ba/F3 EGFR^WT GI50 class
How it was run: as §1

Row | Molecule | GI50 ([1]; Mus musculus, BaF3, 72 hours) [nM] | GI50 ([2]; Mus musculus, BaF3, 72 hours) [nM] | GI50 ([1]; 72 hours) [nM] | GI50 ([2]; 72 hours) [nM]
1 | C=CC(=O)N1CCC[C@H]1C#Cc1ncc2ncnc(Nc3ccc(Oc4ccn5ncnc5c4)c(C)c3)c2n1 [Example 84, (S)-1-(2-((8-((4-([1,2,4]triazolo[1,5-a]pyridin-7-yloxy)-3-methylphenyl)amino)pyrimido[5,4-d]pyrimidin-2-yl)ethynyl)pyrrolidin-1-yl)prop-2-en-1-one] | < 100 | 100 to 1000 | – | –
2 | C=CC(=O)N1CCC[C@@H]1C#Cc1ccc2ncnc(Nc3ccc(Oc4ccc5c(c4)ncn5C)c(C)c3)c2c1 [Example 85, (R)-1-(2-((4-((3-methyl-4-((1-methyl-1H-benzo[d]imidazol-5-yl)oxy)phenyl)amino)quinazolin-6-yl)ethynyl)pyrrolidin-1-yl)prop-2-en-1-one] | < 100 | 100 to 1000 | – | –
3 | C=CC(=O)N1CCC[C@@H]1C#Cc1ccc2ncnc(Nc3ccc(OC4=CC5N=CN(C)C5C=C4)c(C)c3)c2n1 (stereo partly drawn) [Example 86, 1-((2R)-2-((4-((3-methyl-4-((1-methyl-3a,7a-dihydro-1H-benzo[d]imidazol-5-yl)oxy)phenyl)amino)pyrido[3,2-d]pyrimidin-6-yl)ethynyl)pyrrolidin-1-yl)prop-2-en-1-one] | < 100 | 1000 to 5000 | – | –
4 | C=CC(=O)N1CCCC[C@@H]1C#Cc1ccc2ncnc(Nc3ccc(Oc4ccc5c(c4)ncn5C)c(C)c3)c2n1 [Example 88, (R)-1-(2-((4-((3-methyl-4-((1-methyl-1H-benzo[d]imidazol-5-yl)oxy)phenyl)amino)pyrido[3,2-d]pyrimidin-6-yl)ethynyl)piperidin-1-yl)prop-2-en-1-one] | < 100 | 1000 to 5000 | – | –
5 | C=CC(=O)N1CCCC[C@H]1C#Cc1ccc2ncnc(Nc3ccc(Oc4ccc5c(c4)ncn5C)c(C)c3)c2n1 [Example 89, (S)-1-(2-((4-((3-methyl-4-((1-methyl-1H-benzo[d]imidazol-5-yl)oxy)phenyl)amino)pyrido[3,2-d]pyrimidin-6-yl)ethynyl)piperidin-1-yl)prop-2-en-1-one] | < 100 | 1000 to 5000 | – | –
6 | C=CC(=O)N1CCC[C@@H]1C#Cc1ncc2ncnc(Nc3ccc(OC4=CC5N=CN(C)C5C=C4)c(C)c3)c2n1 (stereo partly drawn) [Example 90, 1-((2R)-2-((8-((3-methyl-4-((1-methyl-3a,7a-dihydro-1H-benzo[d]imidazol-5-yl)oxy)phenyl)amino)pyrimido[5,4-d]pyrimidin-2-yl)ethynyl)pyrrolidin-1-yl)prop-2-en-1-one] | < 100 | < 100 | – | –
7 | C=CC(=O)N1CCCC[C@@H]1C#Cc1ncc2ncnc(Nc3ccc(Oc4ccc5c(c4)ncn5C)c(C)c3)c2n1 [Example 91, (R)-1-(2-((8-((3-methyl-4-((1-methyl-1H-benzo[d]imidazol-5-yl)oxy)phenyl)amino)pyrimido[5,4-d]pyrimidin-2-yl)ethynyl)piperidin-1-yl)prop-2-en-1-one] | 100 to 1000 | 100 to 1000 | – | –
8 | C=CC(=O)N1CCCC[C@H]1C#Cc1ncc2ncnc(Nc3ccc(Oc4ccc5c(c4)ncn5C)c(C)c3)c2n1 [Example 92, (S)-1-(2-((8-((3-methyl-4-((1-methyl-1H-benzo[d]imidazol-5-yl)oxy)phenyl)amino)pyrimido[5,4-d]pyrimidin-2-yl)ethynyl)piperidin-1-yl)prop-2-en-1-one] | 100 to 1000 | 100 to 1000 | – | –
9 | (S)-1-(2-((4-((3-methyl-4-((1-methyl-1H-benzo[d]imidazol-5-yl)oxy)phenyl)amino)pyrido[3,2-d]pyrimidin-6-yl)ethynyl)pyrrolidin-1-yl)prop-2-en-1-one [Example 87] | – | – | < 100 | 1000 to 5000
10 | N-(2-((4-((4-([1,2,4]triazolo[1,5-a]pyridin-7-yloxy)-3-methylphenyl)amino)pyrido[3,2-d]pyrimidin-6-yl)amino)ethyl)-N-methylacrylamide [Example 11] | – | – | 100 to 1000 | 1000 to 5000
11 | N-(2-((8-((4-([1,2,4]triazolo[1,5-a]pyridin-7-yloxy)-3-methylphenyl)amino)pyrimido[5,4-d]pyrimidin-2-yl)oxy)ethyl)-N-methylacrylamide [Example 4] | – | – | 1000 to 5000 | 1000 to 5000
12 | N-methyl-N-(2-((8-((3-methyl-4-((1-methyl-1H-benzo[d]imidazol-5-yl)oxy)phenyl)amino)pyrimido[5,4-d]pyrimidin-2-yl)amino)ethyl)acrylamide [Example 16] | – | – | 100 to 1000 | > 5000
